Results published in US6350755B1, “Inhibitors of prenyl-protein transferase” (Merck & Co., Inc., priority 2000, dated 2002).
pIC50: −log10 of the molar value.

Target: T1, human FPTase (Homo sapiens, UniProt P49354+P49356)
T1 construct: made in house
Assay: In vitro inhibition of Ras farnesyl transferase
Type: biochemical
Conditions: recombinant FPTase; 650 nM Ras-CVLS, 100 nM farnesyl diphosphate; 30° C.; read-out: IC50 for inhibitory activity against human FPTase
Procedure: Transferase Assays. Isoprenyl-protein transferase activity assays are carried out at 30° C. unless noted otherwise. A typical reaction contains (in a final volume of 50 μL): [^3H]farnesyl diphosphate, Ras protein, 50 mM HEPES, pH 7.5, 5 mM MgCl2, 5 mM dithiothreitol, 10 μM ZnCl2, 0.1% polyethyleneglycol (PEG) (15,000-20,000 mw) and isoprenyl-protein transferase. The FPTase employed in the assay is prepared by recombinant expression as described in Omer, C. A., Kral, A. M., Diehl, R. E., Prendergast, G. C., Powers, S., Allen, C. M., Gibbs, J. B. and Kohl, N. E. (1993) Biochemistry 32:5167-5176. After thermally pre-equilibrating the assay mixture in the absence of enzyme, reactions are initiated by the addition of isoprenyl-protein transferase and stopped at timed intervals (typically 15 min) by the addition of 1 M HCl in ethanol (1 mL). The quenched reactions are allowed to stand for 15 m (to complete the precipitation process). After adding 2 mL of 100% ethanol, the reactions are vacuum-filtered through Whatman GF/C filters. Filters are washed four times with 2 mL aliquots of 100% ethanol, mixed with scintillation fluid (10 mL) and then counted in a Beckman LS3801 scintillation counter.
For inhibition studies, assays are run as described above, except inhibitors are prepared as concentrated solutions in 100% dimethyl sulfoxide and then diluted 20-fold into the enzyme assay mixture. […]

Work on `Cn1cnc2c1C1c3ccc(C#N)c(c3)Oc3cccc(c3)S(=O)(=O)NCCC(=O)N1CC2` (racemic) [Example 1] yielded a pIC50 of at least 5.30.
